From ChEMBL document CHEMBL4823298, “In vitro anti-Leishmania activity and molecular docking of spiro-acridine compounds as potential multitarget agents against Leishmania infantum” (Bioorg Med Chem Lett, 2021)
In brackets after ≈: the same amount, converted by molar mass.

Assays:
Leishmania infantum [1] = experiment: Antileishmanial activity against promastigote form of Leishmania infantum assessed as inhibition of parasite growth; type: functional, organism-based
[2] = Cytotoxicity against human erythrocytes; type: cell-based, Erythrocyte
[3] = Inhibition of Leishmania donovani Topoisomerase 1
[4] = Cytotoxicity against PBMC (unknown origin)
Leishmania infantum [5] = experiment: Antileishmanial activity against axenic amastigote stage of Leishmania infantum assessed as reduction in parasite growth at 6.25 to 12.5 ug/ml; type: functional; conditions: dose 6.25-12.5 µg/ml; at 6.25 to 12.5 µg/mL
Leishmania infantum [6] = experiment: Antileishmanial activity against axenic amastigote stage of Leishmania infantum assessed as reduction in parasite growth; type: functional, organism-based
Leishmania infantum [7] = experiment: Antileishmanial activity against axenic amastigote stage of Leishmania infantum assessed as reduction in parasite growth at 0.7812 ug/ml; type: functional
[8] = Selectivity index, ratio of CC50 for PBMC (unknown origin) to EC50 for anti-leishmanial activity against axenic amastigote stage of Leishmania infantum; type: toxicity; conditions: read-out: Ratio CC50/EC50
[9] = Inhibition of Leishmania Trypanothione reductase

SMILES | IC50 (Leishmania infantum [1]) | HC50 [2] | also measured
N#CC1=CC2(c3ccccc3Nc3ccccc32)N(/N=C\c2ccc(F)cc2)C1=O | 4.11 µg/mL (≈ 10.4 µM) | > 400 µg/mL | 
CCOc1cc(/C=N\N2C(=O)C(C#N)=CC23c2ccccc2Nc2ccccc23)ccc1O | 6.06 µg/mL (≈ 13.9 µM) | > 400 µg/mL | 
N#CC1=CC2(c3ccccc3Nc3ccccc32)N(/N=C\c2ccc(Cl)cc2)C1=O | 5.68 µg/mL (≈ 13.8 µM) | > 400 µg/mL | 
CC[C@@]1(O)C(=O)OCc2c1cc1n(c2=O)Cc2cc3ccccc3nc2-1 [CAMPTOTHECIN] |  |  | EC50 [3]: 0.7 µM
CN(C)c1ccc(/C=N\N2C(=O)C(C#N)=CC23c2ccccc2Nc2ccccc23)cc1 | 1.11 µg/mL (≈ 2.64 µM) | > 400 µg/mL | CC50 [4]: > 100 µg/mL; inhibition (INH) (Leishmania infantum [5]): 65%; EC50 (Leishmania infantum [6]): 0.974 µg/mL (≈ 2.32 µM); inhibition at 0.7812 µg/mL (Leishmania infantum [7]): 33.2%; selectivity ratio [8]: > 103
CN(C)CCCN1c2ccccc2CCc2ccc(Cl)cc21 [CLOMIPRAMINE] |  |  | IC50 [9]: 3.8 µM
N#CC1=CC2(c3ccccc3Nc3ccccc32)N(/N=C\c2ccc([N+](=O)[O-])cc2)C1=O | 5.33 µg/mL (≈ 12.7 µM) | > 400 µg/mL | 
N#CC1=CC2(c3ccccc3Nc3ccccc32)N(/N=C\c2ccccc2[N+](=O)[O-])C1=O | 3.78 µg/mL (≈ 8.97 µM) | > 400 µg/mL | 
CCN(CC)CCCC(C)Nc1c2ccc(Cl)cc2nc2ccc(OC)cc12 (stereo unspecified) [QUINACRINE] |  |  | IC50 [9]: 19 µM
N#CC1=CC2(c3ccccc3Nc3ccccc32)N(/N=C\c2ccccc2)C1=O | 2.04 µg/mL (≈ 5.42 µM) | > 400 µg/mL | CC50 [4]: 44.2 µg/mL (≈ 117 µM); inhibition (INH) (Leishmania infantum [5]): 65%; EC50 (Leishmania infantum [6]): 4.96 µg/mL (≈ 13.2 µM); inhibition at 0.7812 µg/mL (Leishmania infantum [7]): 21.7%; selectivity ratio [8]: 8.9
N#CC1=CC2(c3ccccc3Nc3ccccc32)N(/N=C\c2ccc(Cl)cc2Cl)C1=O | 3.89 µg/mL (≈ 8.74 µM) | > 400 µg/mL | 
C[C@@H]1[C@H](O)[C@@H](C)/C=C/C=C/C=C/C=C/C=C/C=C/C=C/[C@H](O[C@@H]2O[C@H](C)[C@@H](O)[C@H](N)[C@@H]2O)C[C@@H]2O[C@](O)(C[C@@H](O)C[C@@H](O)[C@H](O)CC[C@@H](O)C[C@@H](O)CC(=O)O[C@H]1C)C[C@H](O)[C@H]2C(=O)O [AMPHOTERICIN B] | 0.9 µg/mL (≈ 0.974 µM) |  | CC50 [4]: 7.63 µg/mL (≈ 8.26 µM); EC50 (Leishmania infantum [6]): 1.6 µg/mL (≈ 1.73 µM); selectivity ratio [8]: 4.78
N#CC1=CC2(c3ccccc3Nc3ccccc32)N(/N=C\c2c(Cl)cccc2Cl)C1=O | 2.63 µg/mL (≈ 5.91 µM) | > 400 µg/mL | 
OCCN1CCN(CCCN2c3ccccc3Sc3ccc(Cl)cc32)CC1 [PERPHENAZINE] |  |  | IC50 [9]: 4.88 µM
